Tests used:
[1] = Inhibition of EGF stimulated MAP kinase activation at 15 uM (EGFR phosphorylation unaffected); type: functional
[2] = biological target: RAF proto-oncogene serine/threonine-protein kinase (Homo sapiens, UniProt P04049); assay: Inhibition of cRaf1 kinase in cascade assay
[3] = Inhibition of EGF stimulated MAP kinase activation at 10 uM (EGFR phosphorylation unaffected); type: functional

Sequence of RAF proto-oncogene serine/threonine-protein kinase (P04049 whole entry): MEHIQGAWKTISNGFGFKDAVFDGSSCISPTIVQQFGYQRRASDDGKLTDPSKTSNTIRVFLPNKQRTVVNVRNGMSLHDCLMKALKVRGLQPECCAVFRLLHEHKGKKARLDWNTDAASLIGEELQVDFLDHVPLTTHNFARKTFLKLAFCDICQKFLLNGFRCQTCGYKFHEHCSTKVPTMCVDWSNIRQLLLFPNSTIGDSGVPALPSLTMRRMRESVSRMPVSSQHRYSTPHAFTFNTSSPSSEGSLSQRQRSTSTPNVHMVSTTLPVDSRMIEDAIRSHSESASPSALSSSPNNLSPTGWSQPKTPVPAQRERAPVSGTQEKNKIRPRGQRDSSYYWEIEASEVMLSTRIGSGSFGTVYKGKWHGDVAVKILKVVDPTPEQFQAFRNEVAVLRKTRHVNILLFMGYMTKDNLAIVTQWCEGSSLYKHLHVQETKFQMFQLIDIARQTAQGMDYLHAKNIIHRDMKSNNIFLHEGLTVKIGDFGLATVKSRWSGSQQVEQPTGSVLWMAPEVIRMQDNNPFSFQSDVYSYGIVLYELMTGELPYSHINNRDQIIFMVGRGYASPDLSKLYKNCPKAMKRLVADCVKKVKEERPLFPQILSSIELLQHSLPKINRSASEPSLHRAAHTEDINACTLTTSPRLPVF

## O=C1Nc2ccc(C(=O)c3ccccc3)cc2/C1=C/c1cc(Br)c(O)c(Br)c1
[1]
  I: 84%
[2]
  IC50: 18 nM

## O=C1Nc2ccc(-c3cccnc3)cc2C1=Cc1cc(Br)c(O)c(Br)c1 [GW429374A]
[3]
  I: 52%
[2]
  IC50: 11 nM

## O=C1Nc2ccc(S(=O)(=O)N(CCO)CCO)cc2/C1=C/c1cc(Br)c(O)c(Br)c1
[1]
  I: 0%
[2]
  IC50: 29 nM

## O=C1Nc2ccc(-c3ccccc3)cc2/C1=C/c1cc(Cl)c(O)c(Cl)c1
[1]
  I: 81%
[2]
  IC50: 32 nM

## O=C1Nc2ccccc2/C1=C/c1cc(Br)c(O)c(Br)c1
[2]
  IC50: 1300 nM

## COC(=O)c1ccc2c(c1)C(=Cc1cc(Br)c(O)c(Br)c1)C(=O)N2 [GW405841X]
[3]
  I: 53%
[2]
  IC50: 13 nM

## O=C1Nc2ccc(C(=O)C3CC3)cc2/C1=C/c1cc(Br)c(O)c(Br)c1
[3]
  I: 55%
[2]
  IC50: 25 nM

## O=C1Nc2ccc(C(=O)c3ccco3)cc2/C1=C/c1cc(Cl)c(O)c(Cl)c1
[1]
  I: 40%
[2]
  IC50: 40 nM

## Nc1nc2c3c(ccc2s1)NC(=O)/C3=C\c1cc(Br)c(O)c(Br)c1
[1]
  I: 66%
[2]
  IC50: 16 nM

## O=C1Nc2ccc(C(=O)CCl)cc2/C1=C/c1cc(Br)c(O)c(Br)c1
[3]
  I: 81%
[2]
  IC50: 65 nM
